In US20090220562A1, “Osteogenic and anti-adipogenic oxysterols” (priority 2005, published 2009):

Key:
Assay type in all cases: cell-based, mouse
[1] = tested on: lipoprotein lipase (LPL) and adipocyte P2 gene (aP2); assay: Northern blotting for adipogenic genes in troglitazone-treated M2 cells; conditions: 10 μM Tro with 10 μM 20S, 10 days
Procedure: RNA isolation and Northern blot analysis—Following treatment of cells under appropriate experimental conditions, total RNA was isolated using the RNA isolation kit from Stratagene (La Jolla, Calif., U.S.A.). Total RNA ([…]) was run on a 1% agarose/formaldehyde gel and transferred to Duralon-UV membranes (Strategene, CA, U.S.A.) and cross-linked with UV light. The membranes were hybridized overnight at 60 degree C. with ^32P-labeled mouse osteocalcin cDNA probe, mouse lipoprotein lipase (LPL), mouse adipocyte protein 2 (aP^2) PCR-generated probes, human 28S or 18S rRNA probes obtained from Geneka Biotechnology (Montreal, Quebec, Canada) and Maxim Biotech (San Francisco, Calif., U.S.A.), respectively. […] The extent of gene induction was determined by densitometry.
Test 2: (A) M2 cells at confluence were treated in RPMI containing 10% FBS with control vehicle or 10 μM troglitazone (Tro) in the absence or presence of 10 μM 20S or 22S-hydroxycholesterol. After 10 days, adipocytes were visualized by oil Red O staining and quantified by light microscopy, shown in (B). […] After 10 days, total RNA was isolated and analyzed for lipoprotein lipase (LPL), adipocyte P2 gene (aP2) or 18S rRNA expression by Northern blotting as described (Ref). […]

ERK1 and ERK2 = assay: Western blot for native and phosphorylated ERK in M2 cells; conditions: 5 μM 20S oxysterol for 1, 4, or 8 hours
Procedure: Western blot analysis—After treatments, cells were lysed in lysis buffer, protein concentrations determined using the Bio-Rad protein assay (Hercules, Calif. U.S.A.), and SDS-PAGE performed as previously described. Probing for native and phosphorylated ERKs was performed as previously reported.
(A) M2 cells at confluence were pretreated for four hours with RPMI containing 1% FBS, followed by treatment with control vehicle or 5 μM 20S oxysterol for 1, 4, or 8 hours. Next total cell extracts were prepared and analyzed for levels of native or phosphorylated ERK (pERK) using specific antibodies as previously described. Data from a representative of four experiments are shown, each treatment shown in duplicate samples. (B) M2 cells at confluence were pretreated for 2 hours with control vehicle (C) or 20 μM PD98059 (PD) in osteogenic medium as previously described. Next, a combination of 22R and 20S oxysterols (RS, 5 μM each) were added to appropriate wells as indicated. After 10 days of incubation, matrix mineralization was quantified by the ^45Ca incorporation assay as previously described. […] (C) M2 cells at confluence were pretreated for 2 hours with 20 µM PD98059 (PD) in RPMI containing 5% FBS. […] After 10 days, adipocytes were visualized by oil Red O staining and quantified by light microscopy as previously described. […]

Runx2 = Runx2 DNA binding and protein expression in M2-10B4 cells; conditions: doses of 5-15 μM
Procedure: Method: Marrow stromal cells (M2-10B4 (M2)) were treated with doses of 5-15 μM 20S-hydroxycholestrol.
Method: Marrow stromal cells (M2-10B4 (M2)) were treated with doses of 5-15 μM20S-hydroxycholestrol. Groups of cells were pre-treated with 22S or 22R.
Method: Marrow stromal cells (M2-10B4 (M2)) were pretreated with Wnt signaling inhibitor, DKK-1 (1 μg/ml), then treated with 20S-hydroxycholestrol and 22(8)-hydroxycholesterol.

`CC(C)CCC[C@](C)(O)[C@H]1CC[C@H]2[C@@H]3CC=C4C[C@@H](O)CC[C@]4(C)[C@H]3CC[C@@]21C` [20S-hydroxycholesterol] was tested, and the “expression of adipocyte P2 gene (aP2)” value [1] was “inhibition of the expression”, the “expression of lipoprotein lipase (LPL)” value [1] was “inhibition of the expression” and the “activation of ERK1 and ERK2” value (ERK1 and ERK2) was “sustained activation”. For the same molecule, the “Runx2 DNA binding and protein expression” value (Runx2) was “induction”.
